# Columns and labels:
# [1] = biological target: T1, bovine pancreatic DNase I (Bos taurus, UniProt P00639); settings: cited from earlier work
# [2] = biological target: T1, bovine pancreatic DNase I; assay: DNase I assay; format: biochemical; settings: in the absence of Mn007
# [3] = stated in the introduction without reference; cited from earlier work
# T1 sequence (P00639 23-282): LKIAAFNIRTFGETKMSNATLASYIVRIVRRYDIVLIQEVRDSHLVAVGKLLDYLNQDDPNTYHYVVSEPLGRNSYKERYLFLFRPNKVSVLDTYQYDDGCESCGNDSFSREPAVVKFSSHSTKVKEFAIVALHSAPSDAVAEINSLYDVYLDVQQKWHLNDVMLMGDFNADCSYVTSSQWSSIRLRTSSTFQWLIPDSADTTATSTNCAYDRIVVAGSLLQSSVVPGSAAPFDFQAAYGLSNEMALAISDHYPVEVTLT
Effect on activity of DNase I [2],Compound,Inhibition of bovine pancreatic DNase I (reported) [1],Cytotoxicity [3]
,actin,reported to inhibit,
did not affect the activity of DNase I,"CC(O)COC[C@H]1O[C@@H]2O[C@H]3[C@H](O)[C@@H](O)[C@@H](O[C@H]4[C@H](O)[C@@H](O)[C@@H](O[C@H]5[C@H](O)[C@@H](O)[C@@H](O[C@H]6[C@H](O)[C@@H](O)[C@@H](O[C@H]7[C@H](O)[C@@H](O)[C@@H](O[C@H]8[C@H](O)[C@@H](O)[C@@H](O[C@H]1[C@H](O)[C@H]2O)O[C@@H]8COCC(C)O)O[C@@H]7COCC(C)O)O[C@@H]6COCC(C)O)O[C@@H]5COCC(C)O)O[C@@H]4COCC(C)O)O[C@@H]3COCC(C)O (stereo partly drawn) [HyβCD, 2-Hydroxypropyl-β-cyclodextrin]",,
,O=C(O)CN(CCN(CC(=O)O)CC(=O)O)CC(=O)O [EDTA],reported to inhibit,
,CN(C)c1ccc(C(=C2C=CC(=[N+](C)C)C=C2)c2ccc(N(C)C)cc2)cc1 [crystal violet],reported to inhibit,show cytotoxicity

# Source: article PMC11200219 (JACS Au, 2024)
